14 molecules from patent US9884849B2, “Fluorinated benzofuranyl-pyrimidine derivatives containing a sulfoximine group” (Bayer Pharma Aktiengesellschaft, priority 2014, dated 2018) can be followed below.

One assay addresses T1, CDK9/CycT1 (Homo sapiens, UniProt P50750).
T1 construct: Recombinant full-length His-tagged human CDK9 and CycT1; His; purchased Invitrogen PV4131; host or cells: insect cells
In words: CDK9/CycT1 kinase assay (Method 1a, TR-FRET). The conditions noted are these: 10 μM ATP; for Selectivity CDK9 over CDK2: IC50 (CDK2)/IC50 (CDK9): Methods 1a. and 2a. The format is biochemical. An excerpt:
1a. CDK9/CycT1 Kinase Assay:
CDK9/CycT1-Inhibitory Activity of Compounds of the Present Invention was Quantified Employing the CDK9/CycT1 TR-FRET Assay as Described in the Following Paragraphs:
Recombinant full-length His-tagged human CDK9 and CycT1, expressed in insect cells and purified by Ni-NTA affinity chromatography, were purchased from Invitrogen (Cat. No PV4131). As substrate for the kinase reaction biotinylated peptide biotin-Ttds-YISPLKSPYKISEG (C-terminus in amid form) was used which can be purchased e.g. form the company JERINI Peptide Technologies (Berlin, Germany). For the assay 50 nl of a 100 fold concentrated solution of the test compound in DMSO was pipetted into a black low volume 384 well microtiter plate (Greiner Bio-One, Frickenhausen, Germany), 2 μl of a solution of CDK9/CycT1 in aqueous assay buffer [50 mM Tris/HCl pH 8.0, 10 mM MgCl2, 1.0 mM dithiothreitol, 0.1 mM sodium ortho-vanadate, 0.01% (v/v) Nonidet-P40 (Sigma)] were added and the mixture was incubated for 15 min at 22° C. to allow pre-binding of the test compounds to the enzyme before the start of the kinase reaction. Then the kinase reaction was started by the addition of 3 μl of a solution of adenosine-tri-phosphate (ATP, 16.7 μM=>final conc. in the 5 μl assay volume is 10 μM) and substrate (1.67 μM=>final conc. in the 5 μl assay volume is 1 μM) in assay buffer and the resulting mixture was incubated for a reaction time of 25 min at 22° C. The concentration of CDK9/CycT1 was adjusted depending of the activity of the enzyme lot and was chosen appropriate to have the assay in the linear range, typical concentrations were in the range of 1 μg/mL. The reaction was stopped by the addition of 5 μl of a solution of TR-FRET detection reagents (0.2 μM streptavidine-XL665 [Cisbio Bioassays, Codolet, France] and 1 nM anti-RB(pSer807/pSer811)-antibody from BD Pharmingen [#558389] and 1.2 nM LANCE EU-W1024 labeled anti-mouse IgG antibody [Perkin-Elmer, product no. AD0077]) in an aqueous EDTA-solution (100 mM EDTA, 0.2% (w/v) bovine serum albumin in 100 mM HEPES/NaOH pH 7.0).
The resulting mixture was incubated 1 h at 22° C. to allow the formation of complex between the phosphorylated biotinylated peptide and the detection reagents. Subsequently the amount of phosphorylated substrate was evaluated by measurement of the resonance energy transfer from the Eu-chelate to the streptavidine-XL. Therefore, the fluorescence emissions at 620 nm and 665 nm after excitation at 350 nm was measured in a HTRF reader, e.g. a Rubystar (BMG Labtechnologies, Offenburg, Germany) or a Viewlux (Perkin-Elmer). The ratio of the emissions at 665 nm and at […] was taken as the measure for the amount of phosphorylated substrate. The data were normalised (enzyme reaction without inhibitor=0% inhibition, all other assay components but no enzyme=100% inhibition).
In general terms: Time-resolved FRET reads energy transfer from a long-lived donor to a nearby acceptor.

Another assay has as its system MOLM-13 cells. The experiment in a line: Proliferation assay MOLM-13 (Method 3). The assay is classed as cell-based, human. The conditions noted are these: MOLM-13, 72-hour exposure, Cell Titre-Glo, read-out: Inhibition of MOLM-13 cell proliferation IC50. Here is the method: Non-adherent MOLM-13 human acute myeloid leukemia cells (DSMZ ACC 554) were seeded at a density of 5,000 cells/well in a 96-well multititer plate in 100 μL of growth medium supplemented 10% fetal calf serum. After 24 hours, cell viability of one plate (zero-point plate) was determined with the Cell Titre-Glo Luminescent Cell Viability Assay (Promega), while 50 μL of test compound containing medium was added to the wells of the other plates (final concentrations in the range of 0.001-10 μM and DMSO controls; the final concentration of the solvent dimethyl sulfoxide was 0.5%). Cell viability was assessed after 72-hour exposure with the Cell Titre-Glo Luminescent Cell Viability Assay (Promega). IC50 values (inhibitory concentration at 50% of maximal effect) were determined by means of a 4 parameter fit on measurement data which were normalized to vehicle (DMSO) treated cells (=100%) and measurement readings taken immediately before compound exposure (=0%).

Each structure is given as a SMILES string. Like-named read-outs stand apart in the source and are kept apart here.

T1 sequence (P50750 whole entry): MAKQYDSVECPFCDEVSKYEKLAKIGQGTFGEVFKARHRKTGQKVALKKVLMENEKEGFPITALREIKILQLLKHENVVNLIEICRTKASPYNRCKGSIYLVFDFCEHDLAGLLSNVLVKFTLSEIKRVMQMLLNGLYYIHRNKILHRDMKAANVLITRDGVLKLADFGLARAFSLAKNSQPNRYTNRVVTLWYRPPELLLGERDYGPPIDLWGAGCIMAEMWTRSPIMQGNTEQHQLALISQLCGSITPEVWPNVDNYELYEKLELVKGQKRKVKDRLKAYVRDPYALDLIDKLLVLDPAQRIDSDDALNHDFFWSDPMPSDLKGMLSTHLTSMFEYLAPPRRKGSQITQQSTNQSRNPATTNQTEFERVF
T1 sequence (O60563 whole entry partner): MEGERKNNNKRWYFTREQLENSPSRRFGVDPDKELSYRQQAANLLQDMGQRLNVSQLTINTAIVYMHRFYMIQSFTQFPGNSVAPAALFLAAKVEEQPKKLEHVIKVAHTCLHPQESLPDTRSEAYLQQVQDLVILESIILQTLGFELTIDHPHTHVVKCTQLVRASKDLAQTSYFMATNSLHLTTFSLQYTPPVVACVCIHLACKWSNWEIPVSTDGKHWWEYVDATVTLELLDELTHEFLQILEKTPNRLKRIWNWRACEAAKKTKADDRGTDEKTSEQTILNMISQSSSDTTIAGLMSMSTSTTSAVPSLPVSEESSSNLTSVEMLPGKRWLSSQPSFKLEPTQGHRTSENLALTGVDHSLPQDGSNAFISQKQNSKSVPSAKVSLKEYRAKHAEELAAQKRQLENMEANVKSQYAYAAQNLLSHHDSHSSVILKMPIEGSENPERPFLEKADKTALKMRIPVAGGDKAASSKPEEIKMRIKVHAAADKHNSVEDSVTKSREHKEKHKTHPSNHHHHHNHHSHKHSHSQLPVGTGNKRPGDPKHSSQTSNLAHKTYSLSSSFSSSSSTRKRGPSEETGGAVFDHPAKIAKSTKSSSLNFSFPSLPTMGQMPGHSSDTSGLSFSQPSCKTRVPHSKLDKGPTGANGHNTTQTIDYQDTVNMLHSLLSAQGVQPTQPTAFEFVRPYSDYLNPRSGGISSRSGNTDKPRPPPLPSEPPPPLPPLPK

As for `CS(=O)(Cc1cccc(Nc2ncc(F)c(-c3ccc(F)c4ccoc34)n2)c1)=NC#N` (racemic) [Example 1, (rac)-[(3-{[5-Fluoro-4-(4-fluoro-1-benzofuran-7-yl)pyrimidin-2-yl]amino}benzyl)(methyl)oxido-λ^6-sulfanylidene]cyanamide], the IC50 on CDK9/CycT1 is 2.3 nM; in the assay with MOLM-13 cells (Homo sapiens, MOLM-13, 72 h), 83 nM. The “Selectivity CDK9 over CDK2: IC50 (CDK2)/IC50 (CDK9)” value (shortened to “Selectivity CDK9 over CDK2: IC50”) at CDK9/CycT1 was 32.
On the same counts, the results for `CS(=O)(Cc1cc(F)cc(Nc2ncc(F)c(-c3ccc(F)c4ccoc34)n2)c1)=NC#N` (racemic) [Example 7, (rac)-[(3-Fluoro-5-{[5-fluoro-4-(4-fluoro-1-benzofuran-7-yl)pyrimidin-2-yl]amino}benzyl)(methyl)-oxido-λ^6-sulfanylidene]cyanamide] are 4.1 nM, 17 nM and 14.
Turning to `CS(=N)(=O)Cc1cc(F)cc(Nc2ncc(F)c(-c3ccc(F)c4ccoc34)n2)c1` (racemic) [Example 10, (rac)-5-Fluoro-4-(4-fluoro-1-benzofuran-7-yl)-N-{3-fluoro-5-[(S-methylsulfonimidoyl)-methyl]-phenyl}-pyrimidin-2-amine], at CDK9/CycT1, the IC50 turned out to be 3.1 nM and the “Selectivity CDK9 over CDK2: IC50” value came out at 16. Also, the IC50 in the assay with MOLM-13 cells (Homo sapiens, MOLM-13, 72 h) was determined as 37 nM.
For the molecule `Cc1cc(CS(C)(=N)=O)cc(Nc2ncc(F)c(-c3ccc(F)c4ccoc34)n2)c1` (racemic) [Example 16, (rac)-5-Fluoro-4-(4-fluoro-1-benzofuran-7-yl)-N-{3-methyl-5-[(S-methylsulfonimidoyl)-methyl]phenyl}pyrimidin-2-amine], on CDK9/CycT1, the IC50 came to 4.9 nM and the “Selectivity CDK9 over CDK2: IC50” value stood at 16. The IC50 with MOLM-13 cells (Homo sapiens, MOLM-13, 72 h) was 33 nM.
On the same counts, the results for `CS(=O)(Cc1cc(Nc2ncc(F)c(-c3ccc(F)c4ccoc34)n2)cc(S(F)(F)(F)(F)F)c1)=NC#N` (racemic) [Example 17, (rac)-{[3-{[5-fluoro-4-(4-fluoro-1-benzofuran-7-yl)pyrimidin-2-yl]amino}-5-(pentafluoro-λ^6-sulfanyl)benzyl](methyl)oxido-λ^6-sulfanylidene}cyanamide] are 8 nM, 33 and 57 nM.
On the same counts, the results for `CS(=N)(=O)Cc1cc(Nc2ncc(F)c(-c3ccc(F)c4ccoc34)n2)cc(S(F)(F)(F)(F)F)c1` (racemic) [Example 18, (rac)-5-Fluoro-4-(4-fluoro-1-benzofuran-7-yl)-N-{3-[(S-methylsulfonimidoyl)methyl]-5-(pentafluoro-λ^6-sulfanyl)phenyl}pyrimidin-2-amine] are 2.9 nM, 25 and 30 nM.
`CS(=O)(Cc1cccc(Nc2ncc(F)c(-c3ccc(F)c4ccoc34)n2)c1)=NC#N` (single isomer, unassigned) [Example 2, [(3-{[5-Fluoro-4-(4-fluoro-1-benzofuran-7-yl)pyrimidin-2-yl]amino}benzyl)(methyl)oxido-λ^6-sulfanylidene]cyanamide]: the IC50 against CDK9/CycT1 came to 1.4 nM; in the assay on MOLM-13 cells it was 29 nM. The “Selectivity CDK9 over CDK2: IC50” value on CDK9/CycT1 was 14.
Consider `CS(=O)(Cc1cccc(Nc2ncc(F)c(-c3ccc(F)c4ccoc34)n2)c1)=NC#N` (single isomer, unassigned) [Example 3, [(3-{[5-Fluoro-4-(4-fluoro-1-benzofuran-7-yl)pyrimidin-2-yl]amino}benzyl)(methyl)oxido-λ^6-sulfanylidene]cyanamide], for which the IC50 against CDK9/CycT1 stood at 3.3 nM; in the assay on MOLM-13 cells (Homo sapiens, MOLM-13, 72 h), 47 nM. Besides, at CDK9/CycT1, the “Selectivity CDK9 over CDK2: IC50” value was determined as 14.
On the same counts, the results for `CS(=N)(=O)Cc1cccc(Nc2ncc(F)c(-c3ccc(F)c4ccoc34)n2)c1` (single isomer, unassigned) [Example 5, 5-Fluoro-4-(4-fluoro-1-benzofuran-7-yl)-N-{3-[(S-methylsulfonimidoyl)-methyl]-phenyl}-pyrimidin-2-amine] are 3.7 nM, 115 nM and 24.
`CS(=O)(Cc1cc(F)cc(Nc2ncc(F)c(-c3ccc(F)c4ccoc34)n2)c1)=NC#N` (single isomer, unassigned) [Example 8, [(3-Fluoro-5-{[5-fluoro-4-(4-fluoro-1-benzofuran-7-yl)pyrimidin-2-yl]amino}benzyl)(methyl)-oxido-λ^6-sulfanylidene]cyanamide]: the IC50 on CDK9/CycT1 amounted to 1.6 nM; in the assay on MOLM-13 cells (Homo sapiens, MOLM-13, 72 h), 34 nM. Further, on CDK9/CycT1, the “Selectivity CDK9 over CDK2: IC50” value is 39.
In the case of `CS(=O)(Cc1cc(F)cc(Nc2ncc(F)c(-c3ccc(F)c4ccoc34)n2)c1)=NC#N` (single isomer, unassigned) [Example 9, [(3-Fluoro-5-{[5-fluoro-4-(4-fluoro-1-benzofuran-7-yl)pyrimidin-2-yl]amino}benzyl)(methyl)-oxido-λ^6-sulfanylidene]cyanamide], on CDK9/CycT1, the IC50 stood at 2.1 nM and the “Selectivity CDK9 over CDK2: IC50” value turned out to be 42. In addition, the IC50 in the assay on MOLM-13 cells amounted to 24 nM.
Turning to `CS(=N)(=O)Cc1cc(F)cc(Nc2ncc(F)c(-c3ccc(F)c4ccoc34)n2)c1` (single isomer, unassigned) [Example 12, 5-Fluoro-4-(4-fluoro-1-benzofuran-7-yl)-N-{3-fluoro-5-[(S-methylsulfonimidoyl)-methyl]-phenyl}-pyrimidin-2-amine], on CDK9/CycT1, the IC50 was determined as 3.1 nM and the “Selectivity CDK9 over CDK2: IC50” value is reported as 15.
As to `Cc1cc(CS(C)(=O)=NC#N)cc(Nc2ncc(F)c(-c3ccc(F)c4ccoc34)n2)c1` (single isomer, unassigned) [Example 14, [(3-{[5-Fluoro-4-(4-fluoro-1-benzofuran-7-yl)pyrimidin-2-yl]amino}-5-methylbenzyl)-(methyl)oxido-λ^6-sulfanylidene]cyanamide], at CDK9/CycT1, the IC50 is 4.4 nM and the “Selectivity CDK9 over CDK2: IC50” value was 15. In the assay on MOLM-13 cells (Homo sapiens, MOLM-13, 72 h), the IC50 was found to be 75 nM.
For the molecule `Cc1cc(CS(C)(=O)=NC#N)cc(Nc2ncc(F)c(-c3ccc(F)c4ccoc34)n2)c1` (single isomer, unassigned) [Example 15, [(3-{[5-Fluoro-4-(4-fluoro-1-benzofuran-7-yl)pyrimidin-2-yl]amino}-5-methylbenzyl)-(methyl)oxido-λ^6-sulfanylidene]cyanamide], on CDK9/CycT1, the IC50 is 2.4 nM and the “Selectivity CDK9 over CDK2: IC50” value came to 40. The IC50 with MOLM-13 cells turned out to be 74 nM.
